Data on 28 compounds can be found in patent US10800792B2, “Inhibitors of Bruton's tyrosine kinase and method of their use” (JANSSEN PHARMACEUTICA NV, priority 2015, dated 2020).

For this assay, the target named is unphosphorylated-BTK kinase domain (UP-BTK), GST-tagged human BTK (389-659aa) (Homo sapiens (Human), UniProt Q06187). As to the kind of experiment: BTK kinase Lanthascreen binding assay. Particulars: unphosphorylated-BTK kinase domain, 60 minutes incubation, 50 nM Tracer 236; pIC50 = negative log of the IC50 in molar. A digest of the protocol:
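Compound binding to the unphosphorylated kinase domain was monitored by displacement of a fluorescently labelled tracer in a Lanthascreen format. Potency is given as pIC50, the negative log of the molar IC50.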

unphosphorylated-BTK kinase domain (UP-BTK), GST-tagged human BTK (389-659aa), sequence (Q06187 389-659): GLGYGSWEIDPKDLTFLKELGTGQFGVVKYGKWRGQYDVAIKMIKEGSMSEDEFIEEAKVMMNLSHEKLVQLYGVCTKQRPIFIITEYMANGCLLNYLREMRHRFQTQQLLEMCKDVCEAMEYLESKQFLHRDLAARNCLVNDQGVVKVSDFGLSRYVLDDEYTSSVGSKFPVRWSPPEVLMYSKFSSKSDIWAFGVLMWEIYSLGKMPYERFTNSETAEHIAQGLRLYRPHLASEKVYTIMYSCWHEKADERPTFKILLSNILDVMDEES

For the compound `CNCC(=O)N1CCC[C@@H](NC(=O)c2sc3nccc4c3c2NC(=O)N4c2ccc(OC(C)C)cc2C)C1` [Example 923, (R)-5-(4-Isopropoxy-2-methylphenyl)-N-(1-(2-(methylamino)acetyl)piperidin-3-yl)-4-oxo-4,5-dihydro-3H-1-thia-3,5,8-triazaacenaphthylene-2-carboxamide], the “BTK_I_binding pIC50” value was found to be 6.3.
For the compound `CC(=O)N1CC[C@H](NC(=O)c2sc3nccc4c3c2NC(=O)N4c2ccc(Oc3ccccc3)cc2)C1` [Example 924, (S)—N-(1-Acetylpyrrolidin-3-yl)-4-oxo-5-(4-phenoxyphenyl)-4,5-dihydro-3H-1-thia-3,5,8-triazaacenaphthylene-2-carboxamide], the “BTK_I_binding pIC50” value came to 6.3.
For the compound `O=C(N[C@@H]1CCN(Cc2ccccc2)C1)c1sc2nccc3c2c1NC(=O)N3c1ccc(Oc2ccccc2)cc1` [Example 925, (R)—N-(1-Benzylpyrrolidin-3-yl)-4-oxo-5-(4-phenoxyphenyl)-4,5-dihydro-3H-1-thia-3,5,8-triazaacenaphthylene-2-carboxamide], the “BTK_I_binding pIC50” value is 6.3.
Regarding `O=C(NC1CCNCC1)c1sc2nccc3c2c1NC(=O)N3c1ccc(Oc2ccccc2)cc1` [Example 926, 4-oxo-5-(4-phenoxyphenyl)-N-(piperidin-4-yl)-4,5-dihydro-3H-1-thia-3,5,8-triazaacenaphthylene-2-carboxamide], the “BTK_I_binding pIC50” value turned out to be 6.2.
Under `O=C(NCCN1CCCC1)c1sc2nccc3c2c1NC(=O)N3c1ccc(Oc2ccccc2)cc1` [Example 927, 4-Oxo-5-(4-phenoxyphenyl)-N-(2-(pyrrolidin-1-yl)ethyl)-4,5-dihydro-3H-1-thia-3,5,8-triazaacenaphthylene-2-carboxamide] stands 6.2; under `O=C(NCCN1CCNCC1)c1sc2nccc3c2c1NC(=O)N3c1ccc(Oc2ccccc2)cc1` [Example 928, 4-Oxo-5-(4-phenoxyphenyl)-N-(2-(piperazin-1-yl)ethyl)-4,5-dihydro-3H-1-thia-3,5,8-triazaacenaphthylene-2-carboxamide], 6.2.
`C=CC(=O)N1CCC(NC(=O)c2sc3nccc4c3c2NC(=O)N4c2ccc(Oc3ccccc3)cc2C)CC1` [Example 929, N-(1-Acryloylpiperidin-4-yl)-5-(2-methyl-4-phenoxyphenyl)-4-oxo-4,5-dihydro-3H-1-thia-3,5,8-triazaacenaphthylene-2-carboxamide]: the “BTK_I_binding pIC50” value came to 6.1.
`Cc1cc(Oc2ccccc2)ccc1N1C(=O)Nc2c(C(=O)N[C@H]3CCCN(C)C3)sc3nccc1c23` [Example 930, (S)-5-(2-methyl-4-phenoxyphenyl)-N-(1-methylpiperidin-3-yl)-4-oxo-4,5-dihydro-3H-1-thia-3,5,8-triazaacenaphthylene-2-carboxamide]: the “BTK_I_binding pIC50” value is 6.0.
Under `CN1CC[C@H](NC(=O)c2sc3nccc4c3c2NC(=O)N4c2ccc(Oc3ccccc3)cc2)C1` [Example 931, (S)—N-(1-Methylpyrrolidin-3-yl)-4-oxo-5-(4-phenoxyphenyl)-4,5-dihydro-3H-1-thia-3,5,8-triazaacenaphthylene-2-carboxamide] stands 6.1; under `O=C(NCCN1CCCCC1)c1sc2nccc3c2c1NC(=O)N3c1ccc(Oc2ccccc2)cc1` [Example 932, 4-Oxo-5-(4-phenoxyphenyl)-N-(2-(piperidin-1-yl)ethyl)-4,5-dihydro-3H-1-thia-3,5,8-triazaacenaphthylene-2-carboxamide], 6.1; under `O=C(NCCN1CCOCC1)c1sc2nccc3c2c1NC(=O)N3c1ccc(Oc2ccccc2)cc1` [Example 933, N-(2-Morpholinoethyl)-4-oxo-5-(4-phenoxyphenyl)-4,5-dihydro-3H-1-thia-3,5,8-triazaacenaphthylene-2-carboxamide], 6.1.
Under `CN1CCN(CCNC(=O)c2sc3nccc4c3c2NC(=O)N4c2ccc(Oc3ccccc3)cc2)CC1` [Example 935, N-(2-(4-Methylpiperazin-1-yl)ethyl)-4-oxo-5-(4-phenoxyphenyl)-4,5-dihydro-3H-1-thia-3,5,8-triazaacenaphthylene-2-carboxamide] stands 6.0; under `CC(=O)N1CCC[C@@H](NC(=O)c2sc3nccc4c3c2NC(=O)N4c2ccc(OC(C)C)cc2C)C1` [Example 936, (R)—N-(1-Acetylpiperidin-3-yl)-5-(4-isopropoxy-2-methylphenyl)-4-oxo-4,5-dihydro-3H-1-thia-3,5,8-triazaacenaphthylene-2-carboxamide], less than 6; under `O=C(N[C@@H]1CCCNC1)c1sc2nccc3c2c1NC(=O)N3c1cccc(-c2cccnc2)c1` [Example 937, (R)-4-Oxo-N-(piperidin-3-yl)-5-(3-(pyridin-3-yl)phenyl)-4,5-dihydro-3H-1-thia-3,5,8-triazaacenaphthylene-2-carboxamide], 6.0.
As for `Cc1ccc(Oc2ccccc2)cc1N1C(=O)Nc2c(C(=O)N[C@H]3CCCN(C(=O)/C(C#N)=C/C4CC4)C3)sc3nccc1c23` [Example 938, (S,E)-N-(1-(2-Cyano-3-cyclopropylacryloyl)piperidin-3-yl)-5-(2-methyl-5-phenoxyphenyl)-4-oxo-4,5-dihydro-3H-1-thia-3,5,8-triazaacenaphthylene-2-carboxamide], the “BTK_I_binding pIC50” value was 6.0.
To `N#C/C(=C\C1CC1)C(=O)N1CCC[C@H](NC(=O)c2sc3nccc4c3c2NC(=O)N4c2cccc(Oc3ccccc3)c2)C1` [Example 939, (S,E)-N-(1-(2-Cyano-3-cyclopropylacryloyl)piperidin-3-yl)-4-oxo-5-(3-phenoxyphenyl)-4,5-dihydro-3H-1-thia-3,5,8-triazaacenaphthylene-2-carboxamide] belongs 6.0.
With `O=C(N[C@H]1CCN(C(=O)c2ccccc2)C1)c1sc2nccc3c2c1NC(=O)N3c1ccc(Oc2ccccc2)cc1` [Example 940, (S)—N-(1-benzoylpyrrolidin-3-yl)-4-oxo-5-(4-phenoxyphenyl)-4,5-dihydro-3H-1-thia-3,5,8-triazaacenaphthylene-2-carboxamide], the “BTK_I_binding pIC50” value is listed as 5.9.
Under `C=CC(=O)N1CCC[C@@H](NC(=O)c2sc3nccc4c3c2NC(=O)N4c2cc(Cl)cc(Cl)c2)C1` [Example 941, (R)—N-(1-Acryloylpiperidin-3-yl)-5-(3,5-dichlorophenyl)-4-oxo-4,5-dihydro-3H-1-thia-3,5,8-triazaacenaphthylene-2-carboxamide] stands 5.8.
As to `Cc1ccccc1N1C(=O)Nc2c(C(=O)N[C@H]3CCCN(C(=O)/C(C#N)=C/C4CC4)C3)sc3nccc1c23` [Example 942, (S,E)-N-(1-(2-Cyano-3-cyclopropylacryloyl)piperidin-3-yl)-4-oxo-5-(o-tolyl)-4,5-dihydro-3H-1-thia-3,5,8-triazaacenaphthylene-2-carboxamide], the “BTK_I_binding pIC50” value was determined as 5.6.
As for `C=CC(=O)N1CCC[C@@H](NC(=O)c2sc3nccc4c3c2NC(=O)N4c2cccc(N(C)C)c2)C1` [Example 943, (R)—N-(1-Acryloylpiperidin-3-yl)-5-(3-(dimethylamino)phenyl)-4-oxo-4,5-dihydro-3H-1-thia-3,5,8-triazaacenaphthylene-2-carboxamide], the “BTK_I_binding pIC50” value was determined as 5.6.
Under `Cc1cc(Oc2ccccc2)ccc1N1C(=O)Nc2c(C(=O)NC3CCN(C(=O)CC#N)CC3)sc3nccc1c23` [Example 944, N-(1-(2-Cyanoacetyl)piperidin-4-yl)-5-(2-methyl-4-phenoxyphenyl)-4-oxo-4,5-dihydro-3H-1-thia-3,5,8-triazaacenaphthylene-2-carboxamide] stands 5.6.
Under `O=C(N[C@H]1CCN(Cc2ccccc2)C1)c1sc2nccc3c2c1NC(=O)N3c1ccc(Oc2ccccc2)cc1` [Example 945, (S)—N-(1-Benzylpyrrolidin-3-yl)-4-oxo-5-(4-phenoxyphenyl)-4,5-dihydro-3H-1-thia-3,5,8-triazaacenaphthylene-2-carboxamide] stands 5.5; under `COc1ccc(N2C(=O)Nc3c(C(=O)N[C@H]4CCCN(C(=O)/C(C#N)=C/C5CC5)C4)sc4nccc2c34)c(C)c1` [Example 946, (S,E)-N-(1-(2-Cyano-3-cyclopropylacryloyl)piperidin-3-yl)-5-(4-methoxy-2-methylphenyl)-4-oxo-4,5-dihydro-3H-1-thia-3,5,8-triazaacenaphthylene-2-carboxamide], 5.4.
To `CCC(=O)N1CCC(NC(=O)c2sc3nccc4c3c2NC(=O)N4c2ccc(Oc3ccccc3)cc2C)CC1` [Example 947, 5-(2-Methyl-4-phenoxyphenyl)-4-oxo-N-(1-propionylpiperidin-4-yl)-4,5-dihydro-3H-1-thia-3,5,8-triazaacenaphthylene-2-carboxamide] belongs 5.4.
Turning to `C=CC(=O)N1CCC[C@@H](NC(=O)c2sc3nccc4c3c2NC(=O)N4c2ccc(N)cc2)C1` [Example 948, (R)—N-(1-Acryloylpiperidin-3-yl)-5-(4-aminophenyl)-4-oxo-4,5-dihydro-3H-1-thia-3,5,8-triazaacenaphthylene-2-carboxamide], the “BTK_I_binding pIC50” value came out at 5.2.
To `CN(C)c1ccc(N2C(=O)Nc3c(C(=O)N[C@@H]4CCCNC4)sc4nccc2c34)cc1` [Example 949, (R)-5-(4-(Dimethylamino)phenyl)-4-oxo-N-(piperidin-3-yl)-4,5-dihydro-3H-1-thia-3,5,8-triazaacenaphthylene-2-carboxamide] belongs 5.2; to `Cc1cccc(N2C(=O)Nc3c(C(=O)N[C@@H]4CCCNC4)sc4nccc2c34)c1` [Example 950, (R)-4-Oxo-N-(piperidin-3-yl)-5-(m-tolyl)-4,5-dihydro-3H-1-thia-3,5,8-triazaacenaphthylene-2-carboxamide], 5.1; to `O=C(N[C@@H]1CCCNC1)c1sc2nccc3c2c1NC(=O)N3c1ccc(Cl)cc1` [Example 951, (R)-5-(4-Chlorophenyl)-4-oxo-N-(piperidin-3-yl)-4,5-dihydro-3H-1-thia-3,5,8-triazaacenaphthylene-2-carboxamide], 5.1.
